Data reported in patent US4681872A (priority 1985, dated 1987).
Converted amounts (≈) assume the structure as drawn. Where two headings read alike, the source gives them in different places.

Legend:
[1] = tested on: Staph. epidermidis GYR 1151; assay: antimicrobial spectrum, agar dilution MIC; type: cell-based; details: 35°-37° C., 20-24 hours
[2] = tested on: Staph. epidermidis CMX 724G; assay: antimicrobial spectrum, agar dilution MIC
[3] = tested on: Strep. pyogenes M79061-139; assay: antimicrobial spectrum, agar dilution MIC; type: cell-based; details: 35°-37° C., 20-24 hours
Strep. pyogenes = assay: acute mouse protection test; type: in vivo, Swiss albino mice; details: mice, dosed 1 and 5 hours post-infection, observed 7 days; for ED50: Streptococcus pyogenes, 168 h
Enterococcus GYR 1167 = assay: antimicrobial spectrum, agar dilution MIC
[4] = beagle dogs, oral, 10.0 mg/kg, buffered solution of the lactobionate salt in water; in comparison to erythromycin A
Staph. aureus 642A = assay: antimicrobial spectrum, agar dilution MIC; type: cell-based; details: BHI agar, 35°-37° C., 20-24 hours
Staph. aureus CMX 739A = assay: antimicrobial spectrum, agar dilution MIC; type: cell-based; details: BHI agar, 35°-37° C., 20-24 hours
[5] = tested on: Bact. thetaiotamicron ATCC 29741; assay: antimicrobial spectrum, agar dilution MIC
Staph. aureus ATCC 6538P = assay: antimicrobial spectrum, agar dilution MIC
Bact. fragilis UC-2 = details: BHI agar, 35°-37° C., 20-24 hours
Strep. pyogenes C203 = assay: antimicrobial spectrum, agar dilution MIC; type: cell-based; details: BHI agar, 35°-37° C., 20-24 hours
[6] = tested on: Bact. melaninogenicus ATCC 15930; assay: antimicrobial spectrum, agar dilution MIC; type: cell-based; details: 35°-37° C., 20-24 hours
[7] = tested on: Strep. pneumoniae CMX 635; assay: antimicrobial spectrum, agar dilution MIC; type: cell-based; details: 35°-37° C., 20-24 hours
Enterococcus CMX 729G = assay: antimicrobial spectrum, agar dilution MIC
Staph. aureus CMX 730A = assay: antimicrobial spectrum, agar dilution MIC; type: cell-based; details: BHI agar, 35°-37° C., 20-24 hours
[8] = tested on: Providencia stuartii CMX 640; assay: antimicrobial spectrum, agar dilution MIC; type: cell-based; details: BHI agar, 35°-37° C., 20-24 hours
[9] = tested on: Strep. pneumoniae 78-008107; assay: antimicrobial spectrum, agar dilution MIC
[10] = tested on: Strep. pyogenes M79061-140; assay: antimicrobial spectrum, agar dilution MIC; type: cell-based; details: 35°-37° C., 20-24 hours
[11] = tested on: Staph. epidermidis CMX 728; assay: antimicrobial spectrum, agar dilution MIC; type: cell-based; details: 35°-37° C., 20-24 hours
[12] = tested on: Veillonella parvula ATCC 10790; assay: antimicrobial spectrum, agar dilution MIC
Enterococcus GYR 1164 = assay: antimicrobial spectrum, agar dilution MIC
Staph. aureus CMX 705 = assay: antimicrobial spectrum, agar dilution MIC; type: cell-based; details: 35°-37° C., 20-24 hours
Peptostrep. SP TB-11 = assay: antimicrobial spectrum, agar dilution MIC
Strep. pneumoniae = assay: acute mouse protection test; type: in vivo, Swiss albino mice; details: mice, dosed 1 and 5 hours post-infection, observed 7 days; for ED50: Streptococcus pneumoniae, 168 h
Bact. SP SFM2975-2 = assay: antimicrobial spectrum, agar dilution MIC
Pseudomonas cepacia 2961 = assay: antimicrobial spectrum, agar dilution MIC; details: BHI agar, 35°-37° C., 20-24 hours
[13] = tested on: Strep. agalactiae CMX 633; assay: antimicrobial spectrum, agar dilution MIC; type: cell-based; details: 35°-37° C., 20-24 hours
[14] = tested on: Staph. epidermidis CMX 729h; assay: antimicrobial spectrum, agar dilution MIC
[15] = tested on: Pseudomonas aeruginosa K799/WT; assay: antimicrobial spectrum, agar dilution MIC; details: BHI agar, 35°-37° C., 20-24 hours
[16] = tested on: Bact. thetaiotamicron 106; assay: antimicrobial spectrum, agar dilution MIC
Staph. aureus A5177 = assay: antimicrobial spectrum, agar dilution MIC
[17] = tested on: Peptostrep. micros ATCC 33270; assay: antimicrobial spectrum, agar dilution MIC
Staph. aureus NCTC 10649 = assay: antimicrobial spectrum, agar dilution MIC; type: cell-based; details: 35°-37° C., 20-24 hours
E. coli H560 = assay: antimicrobial spectrum, agar dilution MIC
Fusobacterium SP GS-10 = assay: antimicrobial spectrum, agar dilution MIC

In the case of `CCC1OC(=O)C(C)C(OC2CC(C)(OC)CC(C)O2)C(C)C(OC2OC(C)CC(N(C)C)C2O)C(C)(O)CC(C)C(=O)C(C)C2OC(=O)OC12C` (stereo not drawn) [4"-deoxyerythromycin A 11,12-carbonate], the MIC ([1]; BHI agar) is reported as “.06 µg/mL”, the MIC ([2]; Staph. epidermidis CMX 724G, BHI agar, 35°-37° C., 20-24 hours) is reported as 128 µg/mL (≈ 172 µM) and the MIC ([3]; BHI agar) is reported as “.015 µg/mL”. For the same molecule, the ED-50 (Strep. pyogenes; oral) was 8.9 mg/kg, the ED-50 (Strep. pyogenes; subcutaneous) was 4.0 mg/kg and the MIC (Enterococcus GYR 1167; Enterococcus GYR 1167, BHI agar, 35°-37° C., 20-24 hours) was “.5 µg/mL”. The half life [4] was “substantially longer half life”, the peak blood level [4] was “markedly higher peak blood level” and the MIC (Staph. aureus 642A) was “.06 µg/mL”. The MIC (Staph. aureus CMX 739A) was “.03 µg/mL”, the MIC ([5]; Bact. thetaiotamicron ATCC 29741, BHI agar, 35°-37° C., 20-24 hours) was 1.6 µg/mL (≈ 2.15 µM) and the MIC (Staph. aureus ATCC 6538P; Staph. aureus ATCC 6538P, BHI agar, 35°-37° C., 20-24 hours) was “.1 µg/mL”. For the same molecule, the MIC (Bact. fragilis UC-2) was 1.6 µg/mL (≈ 2.15 µM), the MIC (Strep. pyogenes C203) was “.004 µg/mL” and the MIC ([6]; BHI agar) was “.1 µg/mL”. The MIC ([7]; BHI agar) was “.008 µg/mL”, the MIC (Enterococcus CMX 729G; Enterococcus CMX 729G, BHI agar, 35°-37° C., 20-24 hours) was “.12 µg/mL” and the MIC (Staph. aureus CMX 730A) was “.03 µg/mL”. The MIC [8] was 100 µg/mL (≈ 134 µM), the MIC ([9]; Strep. pneumoniae 78-008107, BHI agar, 35°-37° C., 20-24 hours) was 32 µg/mL (≈ 43 µM) and the MIC ([10]; BHI agar) was “.001 µg/mL”. The MIC ([11]; BHI agar) was “.03 µg/mL”, the MIC ([12]; Veillonella parvula ATCC 10790, BHI agar, 35°-37° C., 20-24 hours) was 3.1 µg/mL (≈ 4.17 µM) and the MIC (Enterococcus GYR 1164; Enterococcus GYR 1164, BHI agar, 35°-37° C., 20-24 hours) was “.12 µg/mL”. For the same molecule, the MIC (Staph. aureus CMX 705; BHI agar) was “.03 µg/mL”, the MIC (Peptostrep. SP TB-11; Peptostrep. SP TB-11, BHI agar, 35°-37° C., 20-24 hours) was “.8 µg/mL” and the ED-50 (Strep. pneumoniae; oral) was 200.0 mg/kg. For the same molecule, the ED-50 (Strep. pneumoniae; subcutaneous) was 44.1 mg/kg, the MIC (Bact. SP SFM2975-2; Bact. SP SFM2975-2, BHI agar, 35°-37° C., 20-24 hours) was “.8 µg/mL” and the MIC (Pseudomonas cepacia 2961) was 50 µg/mL (≈ 67.2 µM). For the same molecule, the MIC ([13]; BHI agar) was “.015 µg/mL”, the MIC ([14]; Staph. epidermidis CMX 729h, BHI agar, 35°-37° C., 20-24 hours) was 128 µg/mL (≈ 172 µM) and the MIC [15] was 100 µg/mL (≈ 134 µM). For the same molecule, the MIC ([16]; Bact. thetaiotamicron 106, BHI agar, 35°-37° C., 20-24 hours) was 3.1 µg/mL (≈ 4.17 µM), the MIC (Staph. aureus A5177; Staph. aureus A5177, BHI agar, 35°-37° C., 20-24 hours) was “.39 µg/mL” and the MIC ([17]; Peptostrep. micros ATCC 33270, BHI agar, 35°-37° C., 20-24 hours) was “.05 µg/mL”. The MIC (Staph. aureus NCTC 10649; BHI agar) was “.06 µg/mL”, the MIC (E. coli H560; E. coli H560, BHI agar, 35°-37° C., 20-24 hours) was 6.2 µg/mL (≈ 8.33 µM) and the MIC (Fusobacterium SP GS-10; Fusobacterium SP GS-10, BHI agar, 35°-37° C., 20-24 hours) was 25 µg/mL (≈ 33.6 µM).

`CC[C@H]1OC(=O)[C@H](C)[C@@H](O[C@H]2C[C@@](C)(OC)[C@@H](O)[C@H](C)O2)[C@H](C)[C@@H](O[C@@H]2O[C@H](C)C[C@H](N(C)C)[C@H]2O)[C@](C)(O)C[C@@H](C)C(=O)[C@H](C)[C@@H](O)[C@]1(C)O` [Erythromycin A, reference compound] showed an MIC ([1]; Staphylococcus epidermidis, GYR1151, BHI agar, read-out: MIC) of 0.06 µg/mL (≈ 0.0818 µM), an MIC ([2]; Staphylococcus epidermidis, CMX724G) of 128 µg/mL (≈ 174 µM) and an MIC ([3]; Streptococcus pyogenes, M79061139, BHI agar, read-out: MIC) of 0.015 µg/mL (≈ 0.0204 µM). It also gave an ED50 (Strep. pyogenes; oral) of 50 mg/kg, an ED50 (Strep. pyogenes; sc, subcutaneous) of 3.5 mg/kg and an MIC (Enterococcus GYR 1167; Enterococcus, GYR1167) of 2 µg/mL (≈ 2.73 µM). For the same molecule, the MIC (Staph. aureus 642A; Staphylococcus aureus, read-out: MIC) was 0.12 µg/mL (≈ 0.164 µM), the MIC (Staph. aureus CMX 739A; Staphylococcus aureus, CMX739A, read-out: MIC) was 0.06 µg/mL (≈ 0.0818 µM) and the MIC [5] was 3.1 µg/mL (≈ 4.22 µM). The MIC (Staph. aureus ATCC 6538P; Staphylococcus aureus, ATCC6538P) was 0.39 µg/mL (≈ 0.531 µM), the MIC (Strep. pyogenes C203; Streptococcus pyogenes, read-out: MIC) was 0.004 µg/mL (≈ 0.00545 µM) and the MIC ([6]; Prevotella intermedia, ATCC15930, BHI agar, read-out: MIC) was 0.4 µg/mL (≈ 0.545 µM). The MIC ([7]; Streptococcus pneumoniae, CMX635, BHI agar, read-out: MIC) was 0.008 µg/mL (≈ 0.0109 µM), the MIC (Enterococcus CMX 729G; Enterococcus, CMX729G) was 0.1 µg/mL (≈ 0.136 µM) and the MIC (Staph. aureus CMX 730A; Staphylococcus aureus, CMX730A, read-out: MIC) was 0.06 µg/mL (≈ 0.0818 µM). It also gave an MIC ([9]; Streptococcus pneumoniae, 78008107) of 128 µg/mL (≈ 174 µM), an MIC ([10]; Streptococcus pyogenes, M79061140, BHI agar, read-out: MIC) of 0.002 µg/mL (≈ 0.00273 µM) and an MIC ([11]; Staphylococcus epidermidis, CMX728, BHI agar, read-out: MIC) of 0.06 µg/mL (≈ 0.0818 µM). It also gave an MIC ([12]; Veillonella parvula, ATCC10790) of 12.5 µg/mL (≈ 17 µM), an MIC (Enterococcus GYR 1164; Enterococcus, GYR1164) of 2 µg/mL (≈ 2.73 µM) and an MIC (Staph. aureus CMX 705; Staphylococcus aureus, CMX705, BHI agar, read-out: MIC) of 0.06 µg/mL (≈ 0.0818 µM). It also gave an MIC (Peptostrep. SP TB-11) of 3.1 µg/mL (≈ 4.22 µM), an ED50 (Strep. pneumoniae; oral) of 113 mg/kg and an ED50 (Strep. pneumoniae; sc, subcutaneous) of 50 mg/kg. The MIC (Bact. SP SFM2975-2) was 1.6 µg/mL (≈ 2.18 µM), the MIC ([13]; Streptococcus agalactiae, CMX633, BHI agar, read-out: MIC) was 0.015 µg/mL (≈ 0.0204 µM) and the MIC ([14]; Staphylococcus epidermidis, CMX729H) was 128 µg/mL (≈ 174 µM). For the same molecule, the MIC [16] was 3.1 µg/mL (≈ 4.22 µM), the MIC (Staph. aureus A5177; Staphylococcus aureus, A5177) was 1.56 µg/mL (≈ 2.13 µM) and the MIC [17] was 0.1 µg/mL (≈ 0.136 µM). It also gave an MIC (Staph. aureus NCTC 10649; Staphylococcus aureus, NCTC10649, BHI agar, read-out: MIC) of 0.12 µg/mL (≈ 0.164 µM), an MIC (E. coli H560; Escherichia coli, H560) of 12.5 µg/mL (≈ 17 µM) and an MIC (Fusobacterium SP GS-10; Fusobacterium, SPGS10) of 50 µg/mL (≈ 68.1 µM).
